US20030060445A1, “Nutritional formulation containing prebiotic substances” (priority 2000, published 2003)

Key:
Assay type in all cases: cell-based
[1] = test system: Clostridia; assay: Batch culture growth of Clostridia, titers on selective agar (Example 1); conditions: carbohydrate-deficient PYG batch culture, 37° C., anaerobic; supplement in place of glucose 3.0 g/L; FIG. 1
Description: (§1) Identical inoculua (A600∇1.0) of overnight cultures (PYG broth, 37° C., anaerobic) of each organism (Clostridia, Bacteroides, or B. lactis) were grown in batch culture (37° C., anaerobic) with constant stirring. Carbohydrate-deficient batch culture media (PYG) was supplemented with either glucose (3.0 g/L), oligofructose (FOS at 3.0 g/L), sialyllactose (3′- or 6′-sialyllactose at […]), or oligofructose plus sialyllactose (3.0 g/l and 100 mg/L, respectively). Growth was monitored at various time points (see FIG. 1) by determining the titers of the bacteria on selective agar (BIM-25 agar for Bifidobacteria and Wilkens-Chalgren agar for Clostridia and Bacteroides).

[2] = test system: Bacteroides; assay: Batch culture growth of Bacteroides, titers on selective agar (Example 1); conditions: carbohydrate-deficient PYG batch culture, 37° C., anaerobic; supplement in place of glucose 3.0 g/L; FIG. 1
Description: as §1

[3] = test system: B. lactis; assay: Media pH of Bifidobacteria batch culture (Example 3); conditions: PYG batch culture, 37° C., anaerobic; pH monitored at various time points; FIG. 3
Description: (§2) Identical inoculua (A600∇1.0) of overnight cultures (PYG broth, 37° C., anaerobic) of each organism was grown in batch culture (37° C., anaerobic) with constant stirring. Carbohydrate-deficient batch culture media (PYG) was supplemented as above. The media pH were monitored at various time points.

[4] = test system: Bacteroides; assay: Media pH of Bacteroides batch culture (Example 3); conditions: PYG batch culture, 37° C., anaerobic; pH monitored at various time points; FIG. 3
Description: as §2

[5] = test system: Clostridia; assay: Media pH of Clostridia batch culture (Example 3); conditions: PYG batch culture, 37° C., anaerobic; pH monitored at various time points; FIG. 3
Description: as §2

Compound	growth of Clostridia [1]	growth of Bacteroides [2]	media pH change, Bifidobacteria (B. lactis / B. infantis) culture [3]	media pH change, Bacteroides culture [4]	media pH change, Clostridia culture [5]
CC(=O)N[C@H]1[C@H]([C@H](O)[C@H](O)CO)O[C@@](O[C@H]2[C@@H](O)[C@@H](CO)O[C@@H](O[C@H]3[C@H](O)[C@@H](O)C(O)O[C@@H]3CO)[C@@H]2O)(C(=O)O)C[C@@H]1O (some centres unmarked) [3′-sialyllactose]	essentially no growth	essentially no growth	–	–	–
sialyllactose	–	–	the pH increased	the pH increased	the pH increased
